For one experiment, the system named is BC1, breast cancer. Description: In vitro cytotoxicity, human tumor panel: BC1. It is filed as cell-based. Particulars: Homo sapiens, read-out: ED50 BCI. Here is the method:
(§1) Cytotoxicity assay. Compounds 1–9 were evaluated for cytotoxic activity against a panel of human cancer cell lines, including KB-V1 in the presence and absence of VLB, according to an established protocol (68).

A further experiment relates to Col2, colon cancer. Put plainly: In vitro cytotoxicity, human tumor panel: Col2. Particulars: Homo sapiens, read-out: ED50 Col2. Type of experiment: cell-based. How it is done: as §1
In experiment [1] the test system is KB, oral epidermoid carcinoma. Description: In vitro cytotoxicity, human tumor panel: KB. Type of experiment: cell-based. The following applies: Homo sapiens, read-out: ED50 KB. How it is done: as §1
The subject of experiment [2] is LNCaP, hormone-dependent prostate cancer. Description: In vitro cytotoxicity, human tumor panel: LNCaP. Type of experiment: cell-based. Particulars: Homo sapiens, LNCaP, read-out: ED50 LNCaP. How it is done: as §1
In the next experiment the test system is KB-3 cells. Put plainly: Growth inhibitory potential (sulforhodamine B cell survival assay): KB-3. It is filed as cell-based. Particulars: Homo sapiens, KB3, 72 h, read-out: IC50 KB-3.
A further experiment concerns KB-V1 cells. Description: [3H]Vinblastine accumulation with intact cells. Type of experiment: cell-based, human. Particulars: modulator 0–40 μM. Here is the method: [^3H]Vinblastine accumulation with intact cells. Measurement of the accumulation of [^3H]vinblastine in cell monolayers was performed by the method of Fojo et al. (34) with some modifications. Studies were performed with 24-well plates. In preparing the cell monolayers, 2 ml of a cell suspension containing 2.5×10^5 cells per ml of incubation medium (DMEM with 10% calf serum) were added to each well. Control wells contained 2 ml of assay medium. […] Monolayers were washed three times with cold PBS, dried by inversion, and the cells were treated with trypsin. Cell suspensions were then transferred to vials containing 3 ml of scintillation solution (CytoScint™, ICN), mixed vigorously, and counted. The quantity of [^3H]vinblastine associated with incubations containing cells was corrected by subtracting the counts associated with incubations not containing cells.

Another experiment concerns MDR1 (Pgp) expression. Put plainly: Western blot analysis of MDR1 expression. The following applies: KB-V1 and CEM/VLB100 cells, 72 hours; pervilleine A up to 45 μM, verapamil up to 44 μM. Type of experiment: cell-based, human. How it is done: Western blot analysis of MDR1 expression. […] Cells (7.5×10^5 cells as starting cell amount) were harvested using SDS lysis buffer [20 mM Tris-HCl (pH 6.8) containing 0.4% SDS (w/v), 5% glycerol (v/v), 0.006% bromophenol blue, 2% β-mer-captoethanol], and lysates were boiled for 10 minutes and stored at −20° C. Aliquots of lysates were used for protein determinations (bicinchoninic acid protein assay kit with BSA as standard), and equivalent amounts of protein were electrophoresed by SDS-PAGE with precast 7.5% Tris-glycine acrylamide gels (Novex, San Diego, Calif.). Following transfer to polyvinylidene difluoride membranes, nonspecific binding sites were blocked with 5% nonfat dry milk. Blotting was performed with rabbit polyclonal antibody mdr (Ab-1) (Oncogene Research Products, Inc.) and analyzed by streptavidin horseradish peroxidase-conjugated secondary antibody (Amersham Life Science) and visualized using a ECL western blotting detection system (Amersham Life Science).
(In western blotting, separated proteins are transferred to a membrane and probed.)

The test system of another experiment is KB-8-5 cells. Put plainly: In vivo hollow fiber test: KB-8-5. Set-up: species or system NCr nu/nu mice. How it is done:
In vivo hollow fiber test. […] Confluent monolayers of KB-3, KB-V1 or KB-8-5 cells were harvested, collected by centrifugation and resuspended in conditioned medium at a concentration of 7.5×10^5 cells/ml.
Test compounds were administrated once daily by intraperitoneal injection from day 3–6 after implantation. Body weights were measure daily.
After incubating at 37° C. for 4 hours, the culture medium was aspirated and the samples were washed twice with normal saline containing 2.5% protamine sulfate solution by overnight incubation at 4° C. […] The formazan was extracted from each sample with DMSO (250 μl/well) for 4 hours at room temperature on a rotation platform.

[3] abbreviates: summation of single-agent inhibitions.

Entries after “also recorded” stand apart in the source; their conditions may differ.

Regarding `COc1cc(C=CC(=O)O[C@H]2[C@@H](O)[C@@H]3C[C@H](OC(=O)c4cc(OC)c(OC)c(OC)c4)C[C@H]2N3C)cc(OC)c1OC` [Compound 3, 3α-(3,4,5-trimethoxybenzoyloxy)-6β-(3,4,5-trimethoxycinnamoyloxy)-7β-hydroxytropane], the IC50 in the experiment on BC1, breast cancer is over 20 mg/L; in the experiment on Col2, colon cancer, over 20 mg/L; in experiment [1], over 20 mg/L; in experiment [2], over 20 mg/L; in the experiment with KB-3 cells it was 24 µM. In addition, the “fold increase of [3H]vinblastine accumulation” value with KB-V1 cells was “about 27 fold”. Besides, the “effect on levels of Pgp (MDR1 protein expression)” value in the experiment on MDR1 (Pgp) expression was “did not alter expression levels; also recorded: did not significantly alter; also recorded: did not significantly affect”. For the same compound, in the experiment on KB-8-5 cells (setting [3]), the “Calculated inhibition (vinblastine + reversing agent as single agents), KB-8-5, i.p. site” value is listed as 4.5%. In addition, the “Calculated inhibition (vinblastine + reversing agent as single agents), KB-8-5, s.c. site” value in the experiment with KB-8-5 cells (setting [3]) is recorded as 4.9%. For the same compound, in the experiment on KB-8-5 cells (vinblastine 100 μg/kg + reversing agent 0.136 mmol/kg), the “Observed inhibition from coadministration with vinblastine, KB-8-5, s.c. site” value is given as 28 (P = 0.008) %. In addition, the “Observed inhibition from coadministration with vinblastine, KB-8-5, i.p. site” value with KB-8-5 cells (vinblastine 100 μg/kg + reversing agent 0.136 mmol/kg, listed as pervilleine A) is listed as 74.7 (P < 0.0001) %. Moreover, in the experiment with KB-8-5 cells (vinblastine 100 μg/kg, reversing agents 0.136 mmol/kg), the “Growth inhibition, single agent, KB-8-5, s.c. site” value turned out to be 2.6%. The “Growth inhibition, single agent, KB-8-5, i.p. site” value in the experiment on KB-8-5 cells (vinblastine 100 μg/kg, reversing agents 0.136 mmol/kg, i.p. injection once daily days 3–6) is on record as 3.3%.

The values above are taken from patent US6989396B2, “Tropane alkaloid multidrug resistance inhibitors from Erythroxylum pervillei and use of the same” (The Board of Trustees of the University of Illinois, priority 2001, dated 2006).
